Test system: HepG2 cells
Experiment: RNA-seq transcriptome analysis of differentially expressed genes
Assay type: cell-based, human
Settings: BCP vs control HepG2
Description: The quality and concentration of RNA were examined by MOPS RNA electrophoresis and Eppendorf BioSpectrometer. The transcriptome analysis was performed by BGI-Wuhan China. The RNA-seq dataset of this study is accessible in the Gene Expression Omnibus (GEO) with an access number of GSE276099. The sequence library for each sample was prepared using the BGISEQ-500 platform with a 50-bp single-end (SE50) format. […]2.2.1) was used to align the clean reads to the reference genome and alignment of the clean reads to the reference genes was carried out using Bowtie2 (v2.4.5) ([Langmead and Salzberg, 2012]; [Kim et al., 2015]). Gene expression levels were calculated by RSEM (v1.3.1) ([Li and Dewey, 2011]). Analysis of differential gene expression was performed using edgeR in the Bioconductor software package ([Robinson et al., 2010]). Using a standard protocol, the RNA samples were also examined by reverse transcription and quantitative polymerase chain reaction (RT-qPCR). In brief, for reverse transcription, total RNA (1 μg) and gDNA wiper Mix were incubated at 42°C for 2 min. The samples were immediately incubated with a master mix containing 10 pmol/μL of poly (dT) primers at 37°C for 15 min and 85°C for 5 s. To detect the expression of specific genes by qPCR analysis, gene-specific primers (shown in Supplementary Table S1) were mixed with the ChamQ Universal SYBER qPCR Master Mix and the reaction was conducted using the Roche Lightcycler 480. The GAPDH value was used to normalize the results of each gene. The RNA-seq data of BCP-treated HepG2 cells were screened for DEGs. Gene symbols were turned into Enterz ID using the org.Hs.eg.db Bio-conductor R package. The cluster profiler (v4.6.2) package was used to perform the Kyoto Encyclopedia of Genes and Genomes (KEGG) and Gene Ontology (GO) enrichment analyses ([Wu et al., 2021]). Following the Transcript per million (TPM) data of the dataset, the line chart, and heatmap were plotted using ggplot2 and pheatmap R packages, respectively.

C=C1CC/C=C(\C)CC[C@@H]2[C@@H]1CC2(C)C [BCP, β-caryophyllene]
logFC LIPH (gene LIPH, RNA-seq): -0.6901 | change LIPH (gene LIPH, DEG direction): Down | logFC LOC107984590 (gene LOC107984590, RNA-seq): -1.673 | change LOC107984590 (gene LOC107984590, DEG direction): Down | logFC LRRK1 (gene LRRK1, RNA-seq): -0.9626 | change LRRK1 (gene LRRK1, DEG direction): Down | logFC LYSMD4 (gene LYSMD4, RNA-seq): -0.6364 | change LYSMD4 (gene LYSMD4, DEG direction): Down | logFC MAB21L4 (gene MAB21L4, RNA-seq): 0.9293 | change MAB21L4 (gene MAB21L4, DEG direction): Up | logFC MAFA (gene MAFA, RNA-seq): -0.8959 | change MAFA (gene MAFA, DEG direction): Down | logFC MAGEB17 (gene MAGEB17, RNA-seq): -2.787 | change MAGEB17 (gene MAGEB17, DEG direction): Down | logFC MALL (gene MALL, RNA-seq): -0.8293 | change MALL (gene MALL, DEG direction): Down | logFC MAMDC2 (gene MAMDC2, RNA-seq): 1.292 | change MAMDC2 (gene MAMDC2, DEG direction): Up | logFC MAP1A (gene MAP1A, RNA-seq): -1.186 | change MAP1A (gene MAP1A, DEG direction): Down | logFC MAP7 (gene MAP7, RNA-seq): 0.7065 | change MAP7 (gene MAP7, DEG direction): Up | logFC MEF2B (gene MEF2B, RNA-seq): -1.481 | change MEF2B (gene MEF2B, DEG direction): Down | logFC METTL7A (gene METTL7A, RNA-seq): -1.025 | change METTL7A (gene METTL7A, DEG direction): Down | logFC MFSD12 (gene MFSD12, RNA-seq): 0.7075 | change MFSD12 (gene MFSD12, DEG direction): Up | logFC MMP17 (gene MMP17, RNA-seq): 0.8815 | change MMP17 (gene MMP17, DEG direction): Up | logFC MMP24 (gene MMP24, RNA-seq): 1.043 | change MMP24 (gene MMP24, DEG direction): Up | logFC MNX1 (gene MNX1, RNA-seq): -0.6432 | change MNX1 (gene MNX1, DEG direction): Down | logFC MRPS6 (gene MRPS6, RNA-seq): -0.923 | change MRPS6 (gene MRPS6, DEG direction): Down | logFC MTUS2 (gene MTUS2, RNA-seq): -1.542 | change MTUS2 (gene MTUS2, DEG direction): Down | logFC MXD4 (gene MXD4, RNA-seq): -0.5803 | change MXD4 (gene MXD4, DEG direction): Down | logFC MYEOV (gene MYEOV, RNA-seq): -0.7568 | change MYEOV (gene MYEOV, DEG direction): Down | logFC MYH15 (gene MYH15, RNA-seq): -1.78 | change MYH15 (gene MYH15, DEG direction): Down | logFC MYLK3 (gene MYLK3, RNA-seq): 0.5851 | change MYLK3 (gene MYLK3, DEG direction): Up | logFC MYT1L (gene MYT1L, RNA-seq): 0.8858 | change MYT1L (gene MYT1L, DEG direction): Up | logFC MYZAP (gene MYZAP, RNA-seq): -1.044 | change MYZAP (gene MYZAP, DEG direction): Down | logFC NDC80 (gene NDC80, RNA-seq): 0.6133 | change NDC80 (gene NDC80, DEG direction): Up | logFC NES (gene NES, RNA-seq): -0.6748 | change NES (gene NES, DEG direction): Down | logFC NEXN (gene NEXN, RNA-seq): 0.7024 | change NEXN (gene NEXN, DEG direction): Up | logFC NKD1 (gene NKD1, RNA-seq): 1.009 | change NKD1 (gene NKD1, DEG direction): Up | logFC NKD2 (gene NKD2, RNA-seq): 0.8671 | change NKD2 (gene NKD2, DEG direction): Up | logFC NOG (gene NOG, RNA-seq): -0.6516 | change NOG (gene NOG, DEG direction): Down | logFC NOXO1 (gene NOXO1, RNA-seq): -0.746 | change NOXO1 (gene NOXO1, DEG direction): Down | logFC NPIPB8 (gene NPIPB8, RNA-seq): -2.227 | change NPIPB8 (gene NPIPB8, DEG direction): Down | logFC NR4A1 (gene NR4A1, RNA-seq): 0.6275 | change NR4A1 (gene NR4A1, DEG direction): Up | logFC NR4A3 (gene NR4A3, RNA-seq): 0.9047 | change NR4A3 (gene NR4A3, DEG direction): Up | logFC OASL (gene OASL, RNA-seq): -1.216 | change OASL (gene OASL, DEG direction): Down | logFC P4HA3 (gene P4HA3, RNA-seq): 1.2167 | change P4HA3 (gene P4HA3, DEG direction): Up | logFC PAK6 (gene PAK6, RNA-seq): -1.538 | change PAK6 (gene PAK6, DEG direction): Down | logFC PALM3 (gene PALM3, RNA-seq): -0.7485 | change PALM3 (gene PALM3, DEG direction): Down | logFC PAPPA (gene PAPPA, RNA-seq): 0.997 | change PAPPA (gene PAPPA, DEG direction): Up | logFC PAQR5 (gene PAQR5, RNA-seq): -0.667 | change PAQR5 (gene PAQR5, DEG direction): Down | logFC PCSK1 (gene PCSK1, RNA-seq): 0.7709 | change PCSK1 (gene PCSK1, DEG direction): Up | logFC PDE7B (gene PDE7B, RNA-seq): 0.7688 | change PDE7B (gene PDE7B, DEG direction): Up | logFC PDK1 (gene PDK1, RNA-seq): 0.6017 | change PDK1 (gene PDK1, DEG direction): Up | logFC PDK4 (gene PDK4, RNA-seq): 1.109 | change PDK4 (gene PDK4, DEG direction): Up | logFC PI3 (gene PI3, RNA-seq): -1.544 | change PI3 (gene PI3, DEG direction): Down | logFC PLD1 (gene PLD1, RNA-seq): 0.6612 | change PLD1 (gene PLD1, DEG direction): Up | logFC PLEKHG1 (gene PLEKHG1, RNA-seq): 0.983 | change PLEKHG1 (gene PLEKHG1, DEG direction): Up | logFC PNPLA6 (gene PNPLA6, RNA-seq): -0.6244 | change PNPLA6 (gene PNPLA6, DEG direction): Down | logFC PPP1R15A (gene PPP1R15A, RNA-seq): 0.636 | change PPP1R15A (gene PPP1R15A, DEG direction): Up | logFC PRICKLE2 (gene PRICKLE2, RNA-seq): -2.048 | change PRICKLE2 (gene PRICKLE2, DEG direction): Down | logFC PRKCZ (gene PRKCZ, RNA-seq): 0.789 | change PRKCZ (gene PRKCZ, DEG direction): Up | logFC PRRG4 (gene PRRG4, RNA-seq): -0.7407 | change PRRG4 (gene PRRG4, DEG direction): Down | logFC PSD4 (gene PSD4, RNA-seq): -0.8285 | change PSD4 (gene PSD4, DEG direction): Down | logFC PTGS1 (gene PTGS1, RNA-seq): -1.083 | change PTGS1 (gene PTGS1, DEG direction): Down | logFC PXDN (gene PXDN, RNA-seq): 0.6603 | change PXDN (gene PXDN, DEG direction): Up | logFC RAB17 (gene RAB17, RNA-seq): -1.103 | change RAB17 (gene RAB17, DEG direction): Down | logFC RAB43 (gene RAB43, RNA-seq): -0.73 | change RAB43 (gene RAB43, DEG direction): Down | logFC RAPGEF3 (gene RAPGEF3, RNA-seq): -0.8733

From PMC11671526, “β-caryophyllene sensitizes hepatocellular carcinoma cells to chemotherapeutics and inhibits cell malignancy through targeting MAPK signaling pathway” (Frontiers in Pharmacology, 2024)
